Tests used:
Format in all cases: cell-based
[1] = test system: Bacillus subtilis PCI 219; experiment: Antibacterial spectrum, MIC determination (method of Japan Society of Chemotherapy); conditions: Bacillus subtilis, PCI219
[2] = test system: Staphylococcus aureus 209 P; experiment: as above; conditions: Staphylococcus aureus, 209P
S. aureus Smith = experiment: as above; conditions: Staphylococcus aureus
[3] = test system: S. aureus IID 670 (Terajima); experiment: as above; conditions: Staphylococcus aureus, IID670
S. epidermidis IID 866 = experiment: as above; conditions: Staphylococcus epidermidis, IID866
[4] = test system: Streptococcus pyogenes (S-8); experiment: as above; conditions: Streptococcus pyogenes
[5] = test system: Escherichia coli NIHJ JC-2; experiment: as above; conditions: NIHJJC2; Escherichia coli NIHJ JC-2, Gram -, 10^6 cells/ml
E. coli ATCC 10536 = experiment: as above; conditions: Escherichia coli, ATCC10536
E. coli ML 4707 = experiment: as above; conditions: Escherichia coli, ML4707
[6] = test system: Proteus vulgaris IFO 3167; experiment: as above; conditions: Proteus vulgaris, IFO3167
P. mirabilis IID 994 = experiment: as above; conditions: Proteus mirabilis, IID994
[7] = test system: Morganella morganii IID 602; experiment: as above; conditions: IID602; Morganella morganii IID 602, Gram -, 10^6 cells/ml
[8] = test system: Klebsiella pneumoniae KY(GN)6445; experiment: as above; conditions: Klebsiella pneumoniae
K. pneumoniae 1-220S = experiment: as above; conditions: Klebsiella pneumoniae, 1220S
[9] = test system: Citrobacter freundii IID 976; experiment: as above; conditions: Citrobacter freundii, IID976
[10] = test system: Serratia marcescens IID 618; experiment: as above; conditions: Serratia marcescens, IID618
Shigella sonnei IID 969 = experiment: as above; conditions: IID969; Shigella sonnei IID 969, Gram -, 10^6 cells/ml
Method: Minimal inhibitory concentrations (MICs) were determined in accordance with the method recommended by Japan Society of Chemotherapy.

[11] = test system: Salmonella enteritidis IID 604; experiment: as above; conditions: Salmonella enterica
P. cepacia GIFU 518 = experiment: as above; conditions: Burkholderia cepacia, GIFU518
P. maltophilia GIFU 2491 = experiment: as above; conditions: Stenotrophomonas maltophilia, GIFU2491
[12] = test system: Yersinia enterocolitica IID 981; experiment: as above; conditions: Yersinia enterocolitica, IID981
[13] = test system: Acinetobacter anitratus IID 876; experiment: as above; conditions: Acinetobacter calcoaceticus, IID876
[14] = test system: Alcaligenes faecalis 0114002; experiment: as above; conditions: Alcaligenes faecalis 0114002, Gram -, 10^6 cells/ml
[15] = test system: Bacteroides fragilis GM 7000; experiment: as above; conditions: Bacteroides fragilis, GM7000
B. fragilis 0558 = experiment: as above; conditions: Bacteroides fragilis, 0558
B. fragilis 25285 = experiment: as above; conditions: Bacteroides fragilis, 25285
B. distasonis 8503 = experiment: as above; conditions: Parabacteroides distasonis, 8503
[16] = test system: B. thetaiotaomicron (0661); experiment: as above; conditions: Bacteroides thetaiotaomicron
B. vulgatus KYA 29327 = experiment: as above; conditions: Phocaeicola vulgatus, KYA29327
[17] = test system: Fusobacterium mortiferum 4249; experiment: as above; conditions: Fusobacterium mortiferum, 4249
[18] = test system: Propionibacterium acens 11828; experiment: as above; conditions: Propionibacterium, 11828
[19] = test system: Peptococcus magnus KY 017; experiment: as above; conditions: Finegoldia magna, KY017
C. perfringens KYA 13123 = experiment: microbe, parasite or virus in culture; conditions: Clostridium perfringens, KYA13123
C. ramosum = experiment: Antibacterial spectrum, MIC determination (method of Japan Society of Chemotherapy); conditions: Thomasclavelia ramosa
[20] = test system: Peptostreptococcus anaerobius KYA 27337; experiment: as above; conditions: Peptostreptococcus anaerobius, KYA27337
Pst. micros UPI 5464-1 = experiment: as above; conditions: Parvimonas micra, UPI54641; Pst. micros UPI 5464-1, Gram +, 10^6 cells/ml
[21] = test system: Veillonella parvula KYA 10790; experiment: as above; conditions: KYA10790; Veillonella parvula KYA 10790, Gram -, 10^6 cells/ml

Measured: MIC

O=C(O)c1cn(C2CC2)c2cc(N3CCNCC3)c(F)cc2c1=O [CPFX, ciprofloxacin, reference compound]
0.0063 µg/mL: [5] | [9] | Shigella sonnei IID 969
6.25 µg/mL: [15] | B. distasonis 8503
0.2 µg/mL: [2] | [3] | S. epidermidis IID 866 | Pst. micros UPI 5464-1 | [21]
0.0125 µg/mL: E. coli ATCC 10536 | E. coli ML 4707 | [6] | P. mirabilis IID 994 | [8]
> 12.5 µg/mL: [16] | B. vulgatus KYA 29327
1.56 µg/mL: [17] | [20]
12.5 µg/mL: [18] | C. ramosum
0.05 µg/mL: [1]
0.1 µg/mL: [13]
0.025 µg/mL: [7] | K. pneumoniae 1-220S | [10] | [11] | [12]
3.13 µg/mL: B. fragilis 0558 | B. fragilis 25285
0.39 µg/mL: all other assays above

Source: patent EP0207497A2, “Quinolonecarboxylic acid derivative and process for its preparation” (KYORIN PHARMACEUTICAL CO., LTD., priority 1985, dated 1987)
